Test results: patent US11022604B2, “Dock derived compound against laminin receptor (37 LR) and uses thereof” (Purdue Research Foundation, priority 2017, dated 2021)

Tested on: PC-3 cells
Assay: Label-free quantitative proteomics and Ingenuity Pathway Analysis
Format: cell-based, human
Settings: PC-3, 10 μM, 72 hours
Method: FIG. 7. Volcano Plot of Differentially regulated proteins in response to C3 treatment. PC-3 cells were treated with DMSO or 10 μM C3 for 72 hours and proteins were quantified using label free quantitative mass spectrometry. Proteins were graphed by fold change (Difference) and significance (−Log p) using a false discovery rate of 0.05 and an S0 of 0.1.
FIG. 8 Ingenuity pathway analysis of proteomic data from C3 treatment of PC-3 cells.
Wound Healing Assay. PC-3 cells were seeded in 6 well plates at 3×10^5 cells per well in complete media until the cells reached confluency. Three horizontal and three vertical scratches were made in the confluent monolayers using a standard 200 μL pipette tip and cellular debris were removed by washing with 1×DPBS three times. 1×RPMI-1640 supplemented with C3 or DMSO was added and cells were incubated for 48 hours as described previously. […] Images were uploaded and analyzed for scratch geometry using the tscratch program (96). First, global thresholding was performed, then individual images were manually inspected for single image threshold adjustment and scratch geometries were quantified. […] The samples were analyzed using the Dionex UltiMate 3000 RSLC Nano System coupled to the Q Exactive™ HF Hybrid Quadrupole-Orbitrap MS (Thermo Scientific). […]

## O=C(c1cc(F)cc2c1OCOC2)N1CCN(C2c3ccccc3-c3ccccc32)CC1 [Compound C3, [4-(9h-fluoren-9-yl)piperazino](6-fluoro-4h-1,3-benzodioxin-8-yl)methanone]
  ICT1 protein level: 1.9 FC
